Reference: US8088806B2 (Achillion Pharmaceuticals, Inc., priority 2005, dated 2012)

test system: HCV replicon; assay: Replicon based assay of HCV replication inhibition (NPT ELISA); format: cell-based, Hepatitis C virus; conditions: Hepatitis C virus, Huh-7, 72 h, Table I; Huh-7 HCV replicon-containing cells, three days; read-out: Activity
Procedure: Compounds claimed herein are tested for the ability to inhibit viral replication of the Hepatitis C replicon in cultured cells in which the HCV replicon construct has been incorporated. The HCV replicon system was described by Bartenschlager, et. al (Science, 285, pp. 110-113 (1999)). The replicon system is predictive of in vivo anti-HCV activity; compounds that are active in humans uniformly evidence activity in the replicon assay.
In this assay HCV replicon containing cells are treated with different concentrations of the test compound to ascertain the ability of the test compound to suppress replication of the HCV replicon. As a positive control, HCV replicon-containing cells are treated with different concentrations of interferon alpha, a known inhibitor of HCV replication. The replicon assay system includes Neomycin Phosphotransferase (NPT) as a component of the replicon itself in order to detect the transcription of replicon gene products in the host cell. Cells in which the HCV replicon is actively replicating have high levels of NPT; the level of NPT is proportional to HCV replication. […] The NPT level of each sample is measured using a captured ELISA.
A protocol for testing compounds for the ability to inhibit viral replication of the Hepatitis C replicon cultured cells in which the replicon construct has been incorporated, follows.
The HCV replicon contains, 5′-3′, the HCV-IRES, the neomycin phosphotransferase (neo) gene, the IRES of encephalomyocarditis virus, which directs translation of HCV sequences NS3 to NS5B, and the 3′-NTR. The sequence of the HCV replicon has been deposited in GenBank (Accession no. AJ242652).
The replicon is transfected into Huh-7 cells using standard methods such as electroporation.
The equipment and materials include, but are not limited to, Huh-7 HCV replicon-containing cells, maintenance media (DMEM (Dulbecco's modified Eagle media) supplemented with 10% FBS, L-glutamine, non-essential amino acids, penicillin (100 units/ml), streptomycin (100 micrograms/ml), and 500 micrograms/ml of Geneticin (G418), screening media (DMEM supplemented with 10% FBS, L-glutamine, non-essential amino acids, penicillin (100 units/ml) and streptomycin (100 micrograms/ml)), 96 well tissue culture plates (flat bottom), 96 well plates (U bottom for drug dilution), Interferon alpha for positive control, fixation reagent (such as methanol: acetone), primary antibody (rabbit anti-NPTII), secondary antibody: Eu-N1l, and enhancement solution.
The cells are then seeded onto 96-well plates at a density of 6000-7500 cells/100 microliters/well (6-7.5×10^5 cells/10 ml/plate). The plates are then incubated at 37° C. in a 5% CO2 incubator.
HCV replicon-containing cells are rinsed with once PBS once; 2 mls of trypsin are then added. Cells are incubated at 37° C. in a 5% CO2 incubator for 3-5 minutes. 10 mls of complete medium is added to stop the reaction. Cells are blown gently, put into a 15 ml tube, and spun at 1200 rpm for four minutes. The trypsin/medium solution is removed and 5 mls of medium (500 ml DMEM (high glucose)) from BRL catalog #12430-054; 50 mls 10% FBS, 5% Geneticin G418 (50 mg/ml, BRL catalog #10131-035), 5 ml MEM non-essential amino acids (100×BRL #11140-050) and 5 ml pen-strep (BRL # 15140-148) is added. The cells and media are mixed carefully
Cells are plated with screening medium (500 ml DMEM (BRL #21063-029), 50 ml FBS (BRL #10082-147) and 5 ml MEM non-essential amino acid (BRL #11140-050) at 6000-7500 cells/100 μl/well of 96 well plate (6-7.5×10^5 cells/10 ml/plate). Plates are placed into 37° C. 5% CO2 incubator overnight.
The following morning, drugs (test compounds or interferon alpha) are diluted in 96 well U bottom plates with media or DMSO/media, depending on the final concentration chosen for screening. Generally for 6 concentrations of each test compounds ranging from 10 micromolar to 0.03 micromolar are applied. […]

**Q.** `Fc1ccc(-c2csc(Nc3ccc(Cl)c(C(F)(F)F)c3)n2)cc1` [compound 59, N-(4-chloro-3-(trifluoromethyl)phenyl)-4-(4-fluorophenyl)thiazol-2-amine] was tested. Which EC50 did it give?
**A.** < 1000 nM

**Q.** `Fc1ccc(-c2csc(Nc3cccc(Cc4ccccc4)c3)n2)cc1` [compound 35, N-(3-benzylphenyl)-4-(4-fluorophenyl)thiazol-2-amine] was tested. Which EC50 did it give?
**A.** > 10000 nM

**Q.** `CCCCCCCOc1ccc(Nc2nc(-c3cccnc3)cs2)cc1` [compound 92, N-(4-(heptyloxy)phenyl)-4-(pyridin-3-yl)thiazol-2-amine] was tested. Which EC50 did it give?
**A.** < 1000 nM

**Q.** `CCCCCCCCc1ccc(Nc2nc(-c3cccnc3)cs2)cc1` [compound 95, N-(4-octylphenyl)-4-(pyridin-3-yl)thiazol-2-amine] was tested. Which EC50 did it give?
**A.** < 1000 nM

**Q.** With `c1ccc(N2CCC(Nc3nc(-c4cccnc4)cs3)=N2)cc1` [compound 143, 4,5-dihydro-1-phenyl-N-(4-(pyridin-3-yl)thiazol-2-yl)-1H-pyrazol-3-amine] as the compound, how does the EC50 read?
**A.** > 10000 nM

**Q.** For `COc1ccc(-c2csc(Nc3ccc4c(c3)OCO4)n2)cc1F` [compound 169, N-(benzo[d][1,3]dioxol-5-yl)-4-(3-fluoro-4-methoxyphenyl)thiazol-2-amine], which EC50 is on record?
**A.** > 10000 nM

**Q.** Which EC50 does the source give for `CCCCCOc1ccc(NC(=O)c2csc(-c3cccnc3)n2)cc1C(F)(F)F` [compound 127, N-(3-(trifluoromethyl)-4-(pentyloxy)phenyl)-2-(pyridin-3-yl)thiazole-4-carboxamide] here?
**A.** > 10000 nM

**Q.** `CCCCCOc1ccc(Nc2ncc(C(=O)O)s2)cc1C(F)(F)F` [compound 148, 2-(3-(trifluoromethyl)-4-(pentyloxy)phenylamino)thiazole-5-carboxylic acid] was tested. Which EC50 did it give?
**A.** > 10000 nM

**Q.** How did the EC50 turn out when `CCCCCOc1ccc(Nc2nc(-c3ccc(Cl)c(Cl)c3)cs2)cc1` [compound 24, 4-(3,4-dichlorophenyl)-N-(4-(pentyloxy)phenyl)thiazol-2-amine] was run?
**A.** < 1000 nM

**Q.** For `c1ccc(-c2ccc(CNc3nc(-c4cccnc4)cs3)cc2)cc1` [compound 78, N-(4-phenyl-benzyl)-4-(pyridin-3-yl)thiazol-2-amine], which EC50 is on record?
**A.** > 10000 nM

same assay, conditions: Hepatitis C virus, Huh-7, 72 h, Table III; Huh-7 HCV replicon-containing cells, three days; read-out: Activity

**Q.** With `CCCCCCCCOc1ccc(Nc2nc(-c3cncc(OC)c3)cs2)cc1C(F)(F)F` [compound 656, N-(3-(trifluoromethyl)-4-(octyloxy)phenyl)-4-(5-methoxypyridin-3-yl)thiazol-2-amine] as the compound, how does the EC50 read?
**A.** 1000 to 10000 nM

**Q.** How did the EC50 turn out when `CCCCCCCc1ccc(Nc2nc(-c3ccc4c(c3)NC(=O)CO4)cs2)cc1` [compound 560] was run?
**A.** < 1000 nM

**Q.** With `CCCCCCCCOc1ccc(Nc2nc(-c3cnc(Cl)nc3)cs2)cc1C(F)(F)F` [compound 620, 4-(2-chloropyrimidin-5-yl)-N-(3-(trifluoromethyl)-4-(octyloxy)phenyl)thiazol-2-amine] as the compound, how does the EC50 read?
**A.** < 1000 nM

**Q.** `CCCCCCCCc1ccc(Nc2nc(-c3ccc(F)cc3)cs2)cc1` [compound 544, 4-(4-fluorophenyl)-N-(4-octylphenyl)thiazol-2-amine] was tested. Which EC50 did it give?
**A.** < 1000 nM

**Q.** For `FC(F)(F)c1cc(Nc2nc(-c3cncnc3)cs2)ccc1OC1CCCC1` [compound 621, N-(4-(cyclopentyloxy)-3-(trifluoromethyl)phenyl)-4-(pyrimidin-5-yl)thiazol-2-amine], which EC50 is on record?
**A.** < 1000 nM

same assay, conditions: Hepatitis C virus, replicon based assay of HCV replication inhibition; Table II; read-out: Activity

**Q.** How did the EC50 turn out when `CC(=O)Nc1ccc(Nc2nc(-c3cccs3)cs2)cc1` [compound 429, N-(4-(4-(thiophen-2-yl)thiazol-2-ylamino)phenyl)acetamide] was run?
**A.** > 10000 nM

**Q.** With `CCCCCCCOc1ccc(Nc2nc(-c3ccc(OC)cc3)cs2)cc1` [compound 424, N-(4-(heptyloxy)phenyl)-4-(4-methoxyphenyl)thiazol-2-amine] as the compound, how does the EC50 read?
**A.** < 1000 nM

**Q.** Which EC50 does the source give for `CCCCCCCOc1ccc(Nc2nc(-c3ccc(F)cc3)cs2)cc1` [compound 420, 4-(4-fluorophenyl)-N-(4-(heptyloxy)phenyl)thiazol-2-amine] here?
**A.** < 1000 nM

**Q.** `CCCCCCCCOc1ccc(Nc2nc(-c3ccc(F)c(F)c3)cs2)cc1` [compound 312, 4-(3,4-difluorophenyl)-N-(4-(octyloxy)phenyl)thiazol-2-amine] was tested. Which EC50 did it give?
**A.** < 1000 nM

**Q.** Which EC50 does the source give for `CCCCCOc1ccc(Nc2nc(CN3CCN(Cc4ccccn4)CC3)cs2)cc1F` [compound 281, N-(3-fluoro-4-(pentyloxy)phenyl)-4-((4-(pyridin-2-ylmethyl)piperiazin-1-yl)methyl)thiazol-2-amine] here?
**A.** < 1000 nM

**Q.** Which EC50 does the source give for `CCCCCOc1ccc(Nc2nc(CN3C(C)CCCC3C)cs2)cc1C(F)(F)F` (centres unmarked) [compound 277, 4-((2,6-dimethylpiperidin-1-yl)methyl)-N-(4-(pentyloxy)-3-(trifluoromthyl)phenyl)thia-zol-2-amine] here?
**A.** < 1000 nM

**Q.** `CCCCCCCOc1ccc(Nc2nc(-c3ccc(OC)cc3)c(-c3ccc(OC)cc3)s2)cc1` [compound 355, N-(4-(heptyloxy)phenyl)-4,5-bis(4-methoxyphenyl)thiazol-2-amine] was tested. Which EC50 did it give?
**A.** > 10000 nM

**Q.** With `CCCCCCCCOc1ccc(Nc2nc(-c3cccc(C(=O)O)c3)cs2)cc1` [compound 384, 3-(2-(4-(octyloxy)phenylamino)thia-zol-4-yl)benzoic acid] as the compound, how does the EC50 read?
**A.** < 1000 nM

**Q.** `NC(=O)c1cc(-c2csc(Nc3ccc(OC4CCCC4)c(C(F)(F)F)c3)n2)ccc1O` [compound 254, 5-(2-(4-(cyclopentyloxy)-3-(trifluoromethyl)phenyl-amino)thiazol-4-yl)-2-hydroxybenzamide] was tested. Which EC50 did it give?
**A.** < 1000 nM

**Q.** `CCCCCCCCOc1ccc(Nc2nc(CN3CCCC(C)C3)cs2)cc1` (centres unmarked) [compound 325, 4-((3-methylpiperidin-1-yl)methyl)-N-(4-(octyloxy)phenyl)thiazol-2-amine] was tested. Which EC50 did it give?
**A.** 1000 to 10000 nM

**Q.** For `CCCCCOc1ccc(Nc2nc(CN3CCC[C@@H]3C(=O)O)cs2)cc1F` [compound 294, (R)-1-((2-(3-fluoro-4-(pentyloxy)phenylamino)thia-zol-4-yl)methyl)pyrrolidine-2-carboxylic acid], which EC50 is on record?
**A.** 1000 to 10000 nM

same assay, conditions: Hepatitis C virus, replicon based assay of HCV replication inhibition; Table IV; read-out: Activity

**Q.** `CCCCCCCCOc1ccc(Nc2nc(-c3cnc(NC(C)=O)[nH]3)cs2)cc1C(F)(F)F` [compound 865, N-(5-(2-(3-(trifluoromethyl)-4-(octyloxy)phenylamino)thiazol-4-yl)-1H-imidazol-2-yl)acetamide] was tested. Which EC50 did it give?
**A.** < 1000 nM

**Q.** Which EC50 does the source give for `[2H]c1ccc2nc(-c3csc(Nc4ccc(OCC5CCCCC5)c(C(F)(F)F)c4)n3)ccc2n1` [compound 762, N-(4-(cyclohexylmethoxy)-3-(trifluoromethyl)phenyl)-4-(2-deuterated-1,5-naphthyridin-6-yl)thiazol-2-amine] here?
**A.** 1000 to 10000 nM

**Q.** With `COc1ncc(-c2csc(Nc3ccc4ccn(Cc5ccc(F)cc5)c4c3)n2)cn1` [compound 866, 1-(4-fluorobenzyl)-N-(4-(2-methoxypyrimidin-5-yl)thiazol-2-yl)-1H-indol-6-amine] as the compound, how does the EC50 read?
**A.** < 1000 nM

**Q.** How did the EC50 turn out when `c1cncc(-c2csc(Nc3ccc4ncsc4c3)n2)c1` [compound 753, N-(4-(pyridin-3-yl)thiazol-2-yl)benzo[d]thiazol-6-amine] was run?
**A.** > 10000 nM

**Q.** `CCCCCCCCOc1ccc(Nc2nc(-c3ccc(CNC(=O)OC(C)(C)C)nc3)cs2)cc1C(F)(F)F` [compound 843, tert-butyl (5-(2-(3-(trifluoromethyl)-4-(octyloxy)phenylamino)thiazol-4-yl)pyridin-2-yl)methylcarbamate] was tested. Which EC50 did it give?
**A.** < 1000 nM

**Q.** For `c1cncc(-c2csc(Nc3nc4ccccc4[nH]3)n2)c1` [compound 791, N-(4-(pyridin-3-yl)thiazol-2-yl)-1H-benzo[d]imidazol-2-amine], which EC50 is on record?
**A.** > 10000 nM
